As to `CNC(=O)C(C(=O)O)=C1SC(C(=O)NC2(OC)C(=O)N3C(C(=O)O)=C(CSc4nnnn4C)CSC32)S1` (stereo unspecified), the logP (commonly the decadic logarithm of the partition coefficient of the neutral form, usually between octanol and water) was found to be 1.82.

Molecule `COC1(NC(=O)C2SC(C(C(=O)O)C(=O)c3ccccc3)S2)C(=O)N2C(C(=O)O)=C(CSc3nnnn3C)CSC21` (stereo unspecified) displayed a logP of 2.98.

In turn, `COC1(NC(=O)C2SC(=C(C)C(=O)O)S2)C(=O)N2C(C(=O)O)=C(CSC3=NN=NN(C)C3)CSC21` (stereo unspecified) registered a logP of 2.66.

Turning to `COC1(NC(=O)C2SC(=C(SC)C(=O)O)S2)C(=O)N2C(C(=O)O)=C(CSc3nnnn3C)CSC21` (stereo unspecified), the logP was found to be 2.6.

Turning to `COC1(NC(=O)C2SC(C(C(=O)O)C(=O)N(C)C)S2)C(=O)N2C(C(=O)O)=C(CSc3nnnn3C)CSC21` (stereo unspecified), the logP is 2.01.

In turn, `CCSC(C(=O)O)=C1SC(C(=O)NC2(OC)C(=O)N3C(C(=O)O)=C(CSc4nnnn4C)CSC32)S1` (stereo unspecified) gave a logP of 2.86.

Consider `COC1(NC(=O)CSc2snc(O)c2C(=O)O)C(=O)N2C(C(=O)O)=C(CSc3nnnn3C)CSC21` (stereo unspecified), for which the logP was found to be 1.43.

Consider `COC1(NC(=O)C2SC(=CC(=O)O)S2)C(=O)N2C(C(=O)O)=C(CSc3nnnn3C)CSC21` (stereo unspecified), for which the logP stood at 2.19.

Turning to `COC(C(=O)O)=C1SC(C(=O)NC2(OC)C(=O)N3C(C(=O)O)=C(CSc4nnnn4C)CSC32)S1` (stereo unspecified), the logP was determined as 2.

Take `COC1(NC(=O)C2SC(=C(C#N)C(=O)O)S2)C(=O)N2C(C(=O)O)=C(CSc3nnnn3C)CSC21` (stereo unspecified): the logP was found to be 1.73.

In turn, `COC1(NC(=O)C2SC(=C(C(=O)O)S(N)(=O)=O)S2)C(=O)N2C(C(=O)O)=C(CSc3nnnn3C)CSC21` (stereo unspecified) returned a logP of 1.25.

The values above are taken from the SangsterLogP compilation.
